Laboratory results published in a melting point compilation (Tetko et al.).

SMILES	melting point
Cc1cc(S(=O)(=O)Cl)c(Cl)cc1F	44 to 46 °C
O=C(O)CCOc1ccc(F)cc1F	76 to 78 °C
CC(C)N1C2CCC1CC(C(=O)O)C2 (stereo not drawn)	223 to 225 °C
NC(=NO)c1ccc(O)cc1Cl	153 to 155 °C
Cc1sc(-c2ccco2)nc1C(=O)O	229 to 231 °C
CCCN1C(=O)C(=O)c2cc(Br)ccc21	129 to 131 °C
Brc1cccc2[nH]ncc12	165 to 167 °C
O=C(O)C1CCCN(c2ccc(Cl)nn2)C1 (stereo not drawn)	179 to 181 °C
O=C1COCC(=O)N1	141 to 143 °C
Cc1cc(Oc2cnccn2)ccc1N	125 to 127 °C
CC1CCC(N)(C(=O)O)CC1 (stereo not drawn)	200 to 202 °C
O=C1C2C3CC4C5C3C1C5C1(OCCO1)C42 (stereo not drawn)	73 to 75 °C
CCC(CO)N1CCNCC1 (stereo not drawn)	78 to 80 °C
Cc1c(C)c(C)c(S)c(C)c1C	62 to 64 °C
COC(=O)c1ccc(C(F)(F)F)cc1SC	49 to 51 °C
Cc1ccc2c(C)cc(=O)[nH]c2c1	209 to 211 °C
Cc1nnc(S)n1CCS(C)(=O)=O	193 to 195 °C

SMILES	melting point
Cc1noc(-c2ccnc(Cl)c2)n1	65 to 67 °C
O=[N+]([O-])c1cc(S(=O)(=O)N2CCOCC2)ccc1Cl	153 to 155 °C
Cc1[nH]nc(C(=O)O)c1[N+](=O)[O-]	183 to 185 °C
Cc1sc2ncnc(N3CCC(C(=O)O)CC3)c2c1C	244 to 246 °C
O=[N+]([O-])c1ccc(O)nc1Cl	199 to 201 °C
COc1ccc(C=O)c2cc(C(=O)O)oc12	264 to 266 °C
COc1ccc2c(c1)c(C(=O)O)c(C)n2C1CCCCC1	137 to 139 °C
CC(NC(=O)c1cccs1)C(=O)O (stereo not drawn)	163 to 165 °C
Nc1ccc(F)c(S(=O)(=O)NC2CC2)c1	107 to 109 °C
O=C(O)c1ccc(Br)cc1C(F)(F)F	116 to 117 °C
N#Cc1cc2c(nc1N)CCC2	205 to 207 °C
O=C1C(Br)CCN1c1cccc([N+](=O)[O-])c1 (stereo not drawn)	104 to 106 °C
COc1ccc(C(O)C2CC2)c(C)c1 (stereo not drawn)	39 to 41 °C
O=C(O)c1ccn[nH]1	212 to 216 °C
CCCCCS(N)(=O)=O	62 to 64 °C
COCc1cc(Cl)n2ncnc2n1	104 to 106 °C
O=C1CC2(CCSC2)C(=O)O1 (stereo not drawn)	83 to 85 °C

The remaining lines, values ahead:

melting point	SMILES
117 to 119 °C	O=c1ccc2cc(S(=O)(=O)Cl)ccc2o1
140 to 142 °C	O=C(O)CSc1nnc(-c2ccc(F)cc2)o1
90 to 92 °C	COc1ccc2c(c1)CNC(c1ccccc1)C2 (stereo not drawn)
185 to 187 °C	O=C(O)C1(S(=O)(=O)c2ccc(Cl)cc2)CC1
153 to 155 °C	CC(C)c1ccc(S(=O)(=O)N2CC(O)CC2C(=O)O)cc1 (stereo not drawn)
55 to 57 °C	COc1ccccc1OCc1ccccc1N
152 to 154 °C	COc1ccc(Cc2cnc(NC(=O)CCl)s2)cc1
124 to 126 °C	Nc1nc2ccccc2o1
144 to 146 °C	NNS(=O)(=O)Cc1ccc(F)cc1
143 to 145 °C	O=C(O)c1ccn(-c2cccc(Cl)c2)n1
219 to 221 °C	Nc1nnc(Cc2ccc3ccccc3c2)o1
100 to 102 °C	CCOc1ccc(-c2nn(-c3ccccc3)cc2C=O)cc1Cl
97 to 98 °C	CSc1ccc(CC(=O)O)cc1
137 to 139 °C	Nc1ccc(Oc2cccc(F)c2)c2ccncc12
84 to 86 °C	COc1ccc(CC(O)C(=O)O)cc1 (stereo not drawn)
103 to 105 °C	CCCC(C)(NC(=O)OCc1ccccc1)C(=O)O (stereo not drawn)
58 to 60 °C	CCc1cccc(CC(=O)O)c1
107 to 109 °C	CNc1ccc(C(=O)N2CCOCC2)cc1C
88 to 98 °C	NC(=O)NCCc1cccs1
190 to 192 °C	COc1cccc(CNc2ccc3[nH]c(=O)[nH]c3c2)c1
237 to 239 °C	NC(=O)c1ccc(-n2cccc2)cc1
199 to 201 °C	O=C(O)c1ccc(S(=O)(=O)C2CCCC2)cc1
208 to 210 °C	CCCc1ccc(S(N)(=O)=O)cc1
133 to 135 °C	COc1ccc(C(=O)N2CCCCCC2)cc1N
